Columns and labels:
[1] = test system: wheat; test: Test B postemergence herbicide test; format: in vivo, Triticum aestivum; parameters: key to Wheat plant response rating: 0 = no effect, 100 = complete control; conditions: scale 0 (no effect) to 100 (complete control); for Wheat plant response rating: postemergence, visual rating
In short: (§1)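 Each value is a visual 0–100 response rating taken against controls 13 to 15 days after treatment in the greenhouse. Plants received formulated chemical postemergence at the 1- to 4-leaf stage or, in flooded paddy, at the 2-leaf stage.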

[2] = test system: lambsquarters; test: Test B pre-/postemergence herbicide test; format: in vivo, Chenopodium album; conditions: for Lambsquarters plant response rating: postemergence, visual rating
In short: (§2)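 Test chemicals in a non-phytotoxic solvent mixture with surfactant were applied preemergence to seeded species and postemergence to plants 2-18 cm tall (1- to 4-leaf stage); rice and barnyardgrass were also tested in a flooded paddy at the 2-leaf stage. Visual rating versus controls after 13-15 days in greenhouse, scale 0 (no effect) to 100 (complete control).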

[3] = test system: morningglory; test: Test B pre-/postemergence herbicide test; format: in vivo, Ipomoea coccinea; conditions: for Plant response rating, Morningglory: preemergence; for Morningglory plant response rating: postemergence, visual rating, scale 0 (no effect) to 100 (complete control)
In short: (§3)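 Seeds were planted and treated preemergence with compounds formulated in a non-phytotoxic solvent mixture containing surfactant, while plants at the 1- to 4-leaf stage (2 to 18 cm) received postemergence sprays. Flooded paddy plants were grown to the 2-leaf stage. After 13 to 15 days in a greenhouse, injury was visually rated 0–100 against untreated controls.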

[4] = test system: ducksalad; test: Test B flooded paddy test; format: in vivo, Heteranthera limosa; conditions: 1000 g ai/ha, visual rating, scale 0 to 100 (0 no effect, 100 complete control), 13 to 15 days
In short: (§4)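 Postemergence plants were sprayed with formulated test chemicals at 2 to 18 cm height (1- to 4-leaf stage); paddy species were grown to the 2-leaf stage. After 13 to 15 days in a greenhouse, injury was rated visually against untreated controls on a 0–100 scale (0 = no effect, 100 = complete control).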

[5] = test system: small flower umbrella sedge; test: Test B flooded paddy test; format: in vivo, Cyperus difformis; conditions: 1000 g ai/ha, visual rating, scale 0 to 100 (0 no effect, 100 complete control), 13 to 15 days
In short: as §4

[6] = test system: giant foxtail; test: Test B pre-/postemergence herbicide test; format: in vivo, Setaria faberi; conditions: for Foxtail, Giant plant response rating: postemergence, visual rating
In short: as §2

[7] = test system: blackgrass; test: Test B postemergence herbicide test; format: in vivo, Alopecurus myosuroides; conditions: scale 0 (no effect) to 100 (complete control); for Blackgrass plant response rating: postemergence, visual rating
In short: as §4

[8] = test system: Surinam grass; test: Test B pre-/postemergence herbicide test; format: in vivo, Urochloa decumbens; conditions: for Surinam Grass plant response rating: postemergence, visual rating
In short: as §2

[9] = test system: wild oat; test: Test B postemergence herbicide test; format: in vivo, Avena fatua; conditions: scale 0 (no effect) to 100 (complete control); for Oat, Wild plant response rating: postemergence, visual rating
In short: as §1

[10] = test system: velvetleaf; test: Test B pre-/postemergence herbicide test; format: in vivo, Abutilon theophrasti; conditions: for Velvetleaf plant response rating: postemergence, visual rating
In short: as §2

[11] = test system: rice; test: Test B flooded paddy test; format: in vivo, Oryza sativa; conditions: 1000 g ai/ha, visual rating, scale 0 to 100 (0 no effect, 100 complete control), 13 to 15 days
In short: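 Paddy species grown to the 2-leaf stage under flooding; blackgrass sprayed postemergence at 2–18 cm (1- to 4-leaf stage). Plants kept in a greenhouse for 13 to 15 days, then visually rated against controls on 0 (no effect) to 100 (complete control).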

[12] = test system: barnyardgrass; test: Test B flooded paddy test; format: in vivo, Echinochloa crus-galli; conditions: 1000 g ai/ha, visual rating, scale 0 to 100 (0 no effect, 100 complete control), 13 to 15 days
In short: as §4

[13] = test system: cocklebur; test: Test B pre-/postemergence herbicide test; format: in vivo, Xanthium strumarium; conditions: for Cocklebur plant response rating: postemergence, visual rating
In short: as §3

[14] = test system: pigweed; test: Test B pre-/postemergence herbicide test; format: in vivo, Amaranthus retroflexus; conditions: for Pigweed plant response rating: postemergence, visual rating
In short: as §2

[15] = test system: barnyardgrass; test: Test B pre-/postemergence herbicide test; format: in vivo, Echinochloa crus-galli; conditions: for Barnyardgrass plant response rating: postemergence, visual rating
In short: as §3

[16] = Postemergence, 500 g ai/ha, visual rating after 13 to 15 days
[17] = 500 g ai/ha, visual rating 0-100, 0 no effect, 100 complete control, preemergence
[18] = Postemergence, 500 g ai/ha, visual rating after 13 to 15 days, scale 0 (no effect) to 100 (complete control)
[19] = 125 g ai/ha, scale 0 (no effect) to 100 (complete control)
[20] = preemergence, 125 g ai/ha, 0 to 100 scale, 0 is no effect, 100 is complete control
[21] = 500 g ai/ha, visual rating 0-100, 0 no effect, 100 complete control
[22] = 500 g ai/ha, scale 0 (no effect) to 100 (complete control)

## C=CCn1nc(C(C)(C)C)cc1C(=O)Nc1cccc(C(C)=NO)c1 [Compound 117]
[1]; [16]
  Plant response rating, Wheat: 20
[1]; 125 g ai/ha
  Wheat plant response rating: 10
[2]; [17]
  Plant response rating, Lambsquarters: 100
[2]; [18]
  Plant response rating, Lambsquarters: 90
[2]; [19]
  Lambsquarters plant response rating: 60
[2]; [20]
  Plant response rating, Lambsquarters: 90
[3]; [21]
  Plant response rating, Morningglory: 60
[4]
  Ducksalad plant response rating: 80
[5]
  Sedge, Umbrella plant response rating: 90
[6]; [17]
  Plant response rating, Foxtail, Giant: 80
[6]; [18]
  Plant response rating, Foxtail, Giant: 20
[6]; [19]
  Foxtail, Giant plant response rating: 10
[6]; [20]
  Plant response rating, Foxtail, Giant: 20
[7]; [16]
  Plant response rating, Blackgrass: 10
[7]; 125 g ai/ha
  Blackgrass plant response rating: 0
[8]; [17]
  Plant response rating, Surinam Grass: 60
[8]; [18]
  Plant response rating, Surinam Grass: 40
[8]; [19]
  Surinam Grass plant response rating: 30
[8]; [20]
  Plant response rating, Surinam Grass: 30
[9]; [16]
  Plant response rating, Oat, Wild: 20
[9]; 125 g ai/ha
  Oat, Wild plant response rating: 10
[10]; [17]
  Plant response rating, Velvetleaf: 70
[10]; [18]
  Plant response rating, Velvetleaf: 50
[10]; [19]
  Velvetleaf plant response rating: 20
[10]; [20]
  Plant response rating, Velvetleaf: 60
[11]
  Rice plant response rating: 50
[12]
  Barnyardgrass plant response rating: 70
[13]; [17]
  Plant response rating, Cocklebur: 30
[13]; [18]
  Plant response rating, Cocklebur: 90
[13]; [19]
  Cocklebur plant response rating: 30
[13]; [20]
  Plant response rating, Cocklebur: 20
[14]; [17]
  Plant response rating, Pigweed: 90
[14]; [18]
  Plant response rating, Pigweed: 90
[14]; [19]
  Pigweed plant response rating: 50
[14]; [20]
  Plant response rating, Pigweed: 60
[15]; [17]
  Plant response rating, Barnyardgrass: 90
[15]; [18]
  Plant response rating, Barnyardgrass: 30
[15]; [19]
  Barnyardgrass plant response rating: 20
[15]; [20]
  Plant response rating, Barnyardgrass: 60

## CCN(CC)C(=O)c1cccc(NC(=O)c2cc(C(C)(C)C)nn2CC)n1 [Compound 145]
[1]; 500 g ai/ha
  Wheat plant response rating: 20
[2]; [17]
  Plant response rating, Lambsquarters: 100
[2]; [19]
  Lambsquarters plant response rating: 60
[2]; [22]
  Lambsquarters plant response rating: 70
[2]; [20]
  Plant response rating, Lambsquarters: 80
[3]; [21]
  Plant response rating, Morningglory: 40
[3]; 125 g ai/ha
  Morningglory plant response rating: 0
[3]; 500 g ai/ha
  Morningglory plant response rating: 20
[3]; 125 g ai/ha, 0 to 100 scale, 0 is no effect, 100 is complete control
  Plant response rating, Morningglory: 30
[4]
  Ducksalad plant response rating: 70
[5]
  Sedge, Umbrella plant response rating: 90
[6]; [17]
  Plant response rating, Foxtail, Giant: 100
[6]; [19]
  Foxtail, Giant plant response rating: 30
[6]; [22]
  Foxtail, Giant plant response rating: 40
[6]; [20]
  Plant response rating, Foxtail, Giant: 80
[7]; 125 g ai/ha
  Blackgrass plant response rating: 10
[7]; 500 g ai/ha
  Blackgrass plant response rating: 10
[8]; [17]
  Plant response rating, Surinam Grass: 80
[8]; [19]
  Surinam Grass plant response rating: 20
[8]; [22]
  Surinam Grass plant response rating: 20
[8]; [20]
  Plant response rating, Surinam Grass: 30
[9]; 125 g ai/ha
  Oat, Wild plant response rating: 10
[9]; 500 g ai/ha
  Oat, Wild plant response rating: 30
[10]; [17]
  Plant response rating, Velvetleaf: 100
[10]; [19]
  Velvetleaf plant response rating: 50
[10]; [22]
  Velvetleaf plant response rating: 60
[10]; [20]
  Plant response rating, Velvetleaf: 80
[11]
  Rice plant response rating: 40
[12]
  Barnyardgrass plant response rating: 70
[13]; [17]
  Plant response rating, Cocklebur: 20
[13]; [19]
  Cocklebur plant response rating: 0
[13]; [22]
  Cocklebur plant response rating: 30
[13]; [20]
  Plant response rating, Cocklebur: 0
[14]; [17]
  Plant response rating, Pigweed: 100
[14]; [19]
  Pigweed plant response rating: 90
[14]; [22]
  Pigweed plant response rating: 100
[14]; [20]
  Plant response rating, Pigweed: 100
[15]; [17]
  Plant response rating, Barnyardgrass: 100
[15]; [19]
  Barnyardgrass plant response rating: 0
[15]; [22]
  Barnyardgrass plant response rating: 40
[15]; [20]
  Plant response rating, Barnyardgrass: 70
